Assay [1] has as its target T1, Oseltamivir-resistant A/Bethesda/956/2006 neuraminidase (K at 292) (Influenza A virus (H3N2), UniProt F1KL32, R292K). It counts as biochemical. Particulars: pH 6.5.
Assay [2] has as its target T1, Oseltamivir-resistant A/Bethesda/956/2006 neuraminidase (K at 292). In kind it is biochemical. Particulars: pH 5.1.
Assay [3] deals with T2, Oseltamivir-resistant A/Texas/23/2012 neuraminidase (H275Y) (Influenza A virus (H1N1pdm09), UniProt R4SI91, H275Y). It counts as biochemical, Pandemic influenza A(H1N1) 2009 virus. Particulars: pH 6.5.
Assay [4] concerns the target T2, Oseltamivir-resistant A/Texas/23/2012 neuraminidase (H275Y). It counts as biochemical, Pandemic influenza A(H1N1) 2009 virus. Particulars: pH 5.1.

Structures are written as SMILES. Read-outs that look alike come from different tables or passages of the source.

Usually IC50 stands for the concentration that inhibits the measured activity by half. Lower therefore signals inhibition by little substance. On to `CCC(CC)[C@H](NC(C)=O)[C@@H]1[C@H](O)[C@@H](C(=O)O)C[C@H]1N=C(N)N` [Peramivir, peramivir], for which the “Fold change in IC50 compared with drug-sensitive subtype-specific control” value is 16.27 (203) -fold in assay [1], 8.58 (86) fold in assay [2], 15.81 (264) -fold in assay [3] and 30.17 (431) fold in assay [4]. Moreover, the IC50 in assay [1] came to 16.3 nM; in assay [2], 8.58 nM; in assay [3] it was 15.8 nM; in assay [4], 30.2 nM.

Values taken from article PMC3810934 (Emerging Infectious Diseases, 2013).
